Assay results from US10526580B2, “Differentiated cell population of endothelial cells derived from human pluripotent stem cells, composition, system, kit and uses thereof” (BIOCANT-ASSOCIAÇÃO DE TRANSFERÊNCIA DE TECNOLOGIA, priority 2012, dated 2020).

Experiments:
CD31+ cells = test: Shh and Notch signaling modulators, arterial and venous marker expression in CD31+ cells; format: cell-based, human; settings: for expression of arterial marker EphB2: cyclopamine 5 μM and Notch inhibitor L685458 1 μM together; for expression of arterial EC markers EphB2 (protein level), HEY-2, JAG-1 and EFNB1 (gene level) / expression of venous EC markers Lefty-1 and Lefty-2: purmorphamine 1 μM and DLL4 100 ng/mL together, versus cells without activators
Experimental: hESC culture and differentiation. Undifferentiated hESCs (passages 33-36; H9, WiCell, Wisconsin) or hiPSCs K2 (passages 32-35; cord blood derived iPSCs kindly donated by Ulrich Martin) were grown on an inactivated mouse embryonic fibroblast (MEF) feeder layer, as previously described 1, 2. To induce the formation of EBs, the undifferentiated hESCs were treated with 2 mg/mL type IV collagenase (Invitrogen) for 2 h and then transferred (2:1) to low attachment plates (Corning) containing 10 mL of differentiation medium [80% KO-DMEM, 20% fetal bovine serum (FBS, Invitrogen), 0.5% L-glutamine, 0.2% β-mercaptoethanol, 1% nonessential amino acids]. The differentiation medium was supplemented with VEGF165 (50 ng/mL, Prepotech), Tβ4 (100 ng/mL, Caslo) and SB431542 (10 μM, Tocris) according to the following timeline: [(VEGF165)days0-18+(Tβ4)days4-18+(SB431542)days7-18]. After 4 days in suspension, EBs were plated onto 1% gelatin-coated dishes and grown for 14 additional days. Medium was changed every 2-3 days. To evaluate the contribution of Shh and Notch signaling pathways, the differentiation medium was supplemented with one or two of the following agents: 1 μM purmorphamine (Shh activator; Cayman Chemical), 5 μM cyclopamine (Shh inhibitor; Sigma), 100 ng/ml DLL-4 (Notch activator; Prepotech), or 1 μM Y^−-secretase inhibitor L685458 (Notch inhibitor; Tocris Biosciences) 47.
Arterial and venous gene expression was analyzed in CD31^+ cells at the time of their isolation. […] Because arterial/vein specification during mouse embryogenesis is in large part mediated by Notch and Sonic Hedgehog (Shh), the expression of Notch (Notch1, Notch2, Notch3, Notch4) and Shh (patched 1) receptors as well as Notch (DLL1, DLL3, DLL4, JAG-1, JAG-2) and Shh transcription factors (GLI1 and SMO) in CD31^+ cells was assessed (FIG. 1E). […] Was also studied the involvement of Notch and Shh signaling pathways in the gene expression of arterial and venous markers in cells after CD31^+ cell isolation. The independent activation of each signaling pathway has little impact in the expression of arterial marker EphB2 (FIG. 1F).

hESC-derived ECs = test: Vascular toxicity of terbinafine in static or flow culture (morphology, qRT-PCR, ELISA); format: cell-based, human
Experimental: (§1) Fluidic shear stress experiments. HESC-derived ECs (2.6×10^6 cells/mL), HUAECs, HUVECs were seeded on flow chamber untreated-slides (μ-slide 0.4, luer, IBIDI) and grown until confluence. Using a programmed IBIDI pump with positive pressure, the cell monolayer was perfused with EGM-2 medium for 7 days, at flow rate of 15.1 mL/min (corresponding to shear stress of 20 dyne/cm2), or 3.02 mL/min (corresponding to shear stress of 4 dyne/cm2). After 7 days the flow was stopped, the cells imaged, and then stained or collected for posterior gene analysis. Medium was collected for ELISA assays. In some experiments, cells were cultured in medium supplemented with terbinafine (0.1 μM or 1 μM) (Sigma) for a maximum of 24 h, under shear stress. Static controls were performed in the chamber coated-slides but without flow. The IBIDI slides allow a laminar perfusion in rectangular flow geometry.
(§2) Evaluation of the levels of vascular injury by specific markers. ELISA kits analyzed supernatants collected from the shear stress experiments for vWF and vWFpp (Gen-Probe GTI Diagnostic) and ADMA (Enzo Life Sciences), according to manufacturer's recommendations.
Terbinafine is an antifungal agent (inhibitor of ergosterol synthesis) that inhibits angiogenesis by suppressing endothelial cell proliferation, inhibits DNA synthesis and activates EC apoptosis^34, 35. Terbinafine is cytotoxic for HUVECs for concentrations above 120 μM^35. To determine whether the hESC-derived ECs cultured under flow conditions could be used to assess vascular toxicity, cells were cultured for 7 days at 20 dyne/cm2 after which the culture medium was supplemented or not with terbinafine (0.1 and 1 μM) and cells cultured under the same flow conditions for one more day. […] Next, was assessed by qRT-PCR the expression of genes involved in inflammation (ICAM-1; E-selectin), oxidative stress sensing (HO-1) and vasculature modulation (eNOS) in hESC-derived cells and control HUAEC after exposition to terbinafine (FIG. 3B). As expected, the expression of these genes increases under fluidic shear stress^36. […] Upregulation of some genes (HO-1 and E-selectin) was only observed for concentrations of 1 μM in HUAECs. […] ADMA is a naturally occurring amino acid that circulates in plasma and is generated by degradation of methylated proteins. Increase levels of ADMA inhibits nitric oxide (NO) production by competitive inhibition of the physiological substrate L-arginine^38. Drugs that inhibit NO pathway, upregulate caveolin-1 expression and/or enhance ADMA levels could potentially be associated with drug-induced endothelial dysfunction. Therefore, increased circulating levels of ADMA may serve as predictive marker of EC dysfunction^38. […] Such effect was not observed for HUAECs cultured under the same conditions. […] In addition, hESC-derived ECs are more sensitive to the effect of terbinafine than HUAECs.
Next, the vascular damage/injury induced by terbinafine was assessed in hESC-derived ECs and control HUAECs, in the same conditions as before, by measuring the levels of ADMA and the ratio von Willebrand factor pro-peptide (vWFpp): von Willebrand factor (vWF) secreted by these cells (FIG. 3C). The last 2 proteins with different biological activity are released in equimolar concentrations in plasma and an increased level of both proteins predicts EC activation/injury. […] Remarkably, hESC-derived ECs cultured under flow conditions in the presence of terbinafine secrete higher levels of ADMA and vWFpp:vWF than without the drug. Again, the sensitivity of HUAECs to terbinafine was lower than hESC-derived ECs. The concentration of ADMA secreted by hESC-derived cells at 24 h is 3.5 times higher than in basal conditions. Importantly, this shift in concentration is observed in human patients with cardiovascular diseases. Healthy persons have an average of 0.45±0.19 μmol of ADMA per liter of blood and this value increases 2.2 or 2.7 folds when the patient has idiopathic pulmonary arterial hypertension^37. […]

HUAECs = test: Vascular toxicity of terbinafine in static or flow culture (qRT-PCR, ELISA); format: cell-based, human
Experimental: as §1, §2
Terbinafine is an antifungal agent (inhibitor of ergosterol synthesis) that inhibits angiogenesis by suppressing endothelial cell proliferation, inhibits DNA synthesis and activates EC apoptosis^34, 35. Terbinafine is cytotoxic for HUVECs for concentrations above 120 μM^35. To determine whether the hESC-derived ECs cultured under flow conditions could be used to assess vascular toxicity, cells were cultured for 7 days at 20 dyne/cm2 after which the culture medium was supplemented or not with terbinafine (0.1 and 1 μM) and cells cultured under the same flow conditions for one more day. […] Next, was assessed by qRT-PCR the expression of genes involved in inflammation (ICAM-1; E-selectin), oxidative stress sensing (HO-1) and vasculature modulation (eNOS) in hESC-derived cells and control HUAEC after exposition to terbinafine (FIG. 3B). As expected, the expression of these genes increases under fluidic shear stress^36. […] Upregulation of some genes (HO-1 and E-selectin) was only observed for concentrations of 1 μM in HUAECs. […] ADMA is a naturally occurring amino acid that circulates in plasma and is generated by degradation of methylated proteins. Increase levels of ADMA inhibits nitric oxide (NO) production by competitive inhibition of the physiological substrate L-arginine^38. […]
Next, the vascular damage/injury induced by terbinafine was assessed in hESC-derived ECs and control HUAECs, in the same conditions as before, by measuring the levels of ADMA and the ratio von Willebrand factor pro-peptide (vWFpp): von Willebrand factor (vWF) secreted by these cells (FIG. 3C). […]

HUVECs = settings: cited from earlier work
[1] = flow conditions, medium supplemented with terbinafine

In the case of `CC(C)C[C@H](NC(=O)[C@H](Cc1ccccc1)C[C@@H](O)[C@H](Cc1ccccc1)NC(=O)OC(C)(C)C)C(=O)N[C@@H](Cc1ccccc1)C(N)=O` [L685458], the “expression of arterial marker EphB2” value (CD31+ cells) was “significantly decreased”.

In the case of `CC1=C2C[C@H]3[C@@H](CC=C4C[C@@H](O)CC[C@@]43C)[C@@H]2CC[C@]12O[C@@H]1C[C@H](C)CN[C@H]1[C@H]2C` [cyclopamine], the “expression of arterial marker EphB2” value (CD31+ cells) was “significantly decreased”.

In the case of `c1ccc2c(Oc3nc(Nc4ccc(N5CCOCC5)cc4)c4ncn(C5CCCCC5)c4n3)cccc2c1` [purmorphamine], the “expression of arterial EC markers EphB2 (protein level), HEY-2, JAG-1 and EFNB1 (gene level)” value (CD31+ cells) was “significantly increased” and the “expression of venous EC markers Lefty-1 and Lefty-2” value (CD31+ cells) was “decreased”.

For `CN(C/C=C/C#CC(C)(C)C)Cc1cccc2ccccc12` [terbinafine], the “changes in EC morphology and cadherin expression” value (hESC-derived ECs; flow 20 dyne/cm2, terbinafine 0.1 and 1 μM, day 8) was “No significant changes”, the “secretion of ADMA and vWFpp:vWF versus without the drug” value (hESC-derived ECs; flow conditions, ELISA) was “higher levels” and the “concentration of ADMA secreted, relative to basal conditions” value (hESC-derived ECs; flow conditions, at 24 h, ELISA) was 3.5 times. The “expression of DDAH1 and DDAH2” value (hESC-derived ECs; [1]) was “significant decrease”, the “secretion of ADMA or vWFpp:vWF versus control conditions” value (hESC-derived ECs; static conditions, ELISA) was “no significant higher secretion” and the “expression of ICAM-1, E-selectin, HO-1 and eNOS genes (qRT-PCR)” value (hESC-derived ECs; terbinafine at 0.1 μM, flow 20 dyne/cm2, 24 h) was “higher”. The “concentration at which upregulation of some genes (HO-1 and E-selectin) was observed” value (HUAECs; flow 20 dyne/cm2, 24 h) was 1000 nM, the “secretion of vWFpp:vWF” value (HUAECs; flow conditions, exposed to terbinafine, ELISA) was “higher levels” and the “decrease in the expression of DDAH1 and DDAH2” value (HUAECs; [1]) was “not observed”. For the same molecule, the “secretion of ADMA or vWFpp:vWF versus control conditions” value (HUAECs; static conditions, ELISA) was “no significant higher secretion” and the “concentrations cytotoxic for HUVECs” value (HUVECs) was “above 120 μM”.

With DLL4: Notch activator the “expression of arterial EC markers EphB2 (protein level), HEY-2, JAG-1 and EFNB1 (gene level)” value (CD31+ cells) was “significantly increased” and the “expression of venous EC markers Lefty-1 and Lefty-2” value (CD31+ cells) was “decreased”.
